From EP0452507A1, “MEDICINE COMPRISING TOCOPHERYL GLYCOSIDE AS ACTIVE INGREDIENT” (NIPPON HYPOX LABORATORIES INCORPORATED, priority 1989, dated 1991)
Read-outs that look alike come from different tables or passages of the source.

Columns and labels:
[1] = system: IgE antibody; assay type: in vivo, rats; details: for IgE antibody amount in serum, Average value: group average, maximum dilution of serum showing positive reaction
Protocol: At first, 20 male SD rats weighing 180 to 220 g were prepared. Egg-white albumin in an amount of 1 mg per rat was prepared as an antigen to induce the IgE antibody-antigen mediating immune response. Further, a mixture of 20 mg/rat of aluminum hydroxide with 0.6 mi/rat of pertussis vaccine was prepared as an immune aid (adjuvant).
Then, the above antigen and the above adjuvant were equally administered intracutaneously into the four footpads of each rat for sensitization.
24 Hours after the sensitization, the footpad swelling of each rat was measured by volumetry to determine the swelling ratio (unit: %). Then, the rats were separated into four groups each consisting of 5 rats such that the average swelling ratio of one group was nearly equal to that of another group.
Thereafter, one of the four groups was used as Control group, and a physiological saline solution of 10 % Nikkol (trade name, dissolving aid, supplied by Nikko Chemical Co., Ltd.) was administered intraperitoneally to each rat for the 11 consecutive days after the group separation, and on 15th day after the group separation, the serum of each rat was collected, and measured for an IgE antibody amount by means of a 48-hour homologous PCA reaction (passive cutaneous anaphylaxis reaction) as an index. In addition, the IgE antibody amount is shown in terms of a maximum dilution (unit: %) of serum showing positive reaction (blue spot having a diameter of not less than 5 mm).
Two groups of the remaining three groups were used as Example groups ⑥ and 0. A physiological saline solution of 10 % Nikkol containing VIE-MAN was administered intraperitoneally to each rat of Example group ⑥ in such a dose that the amount of VIE-MAN was 30 mg/kg/day for 11 days after the group separation. And, a physiological saline solution of 10 % Nikkol containing VIE-MAN was administered intraperitoneally to each rat of Example group 0 every other day (number of days for administration: 6 days) in such a dose that the amount of VIE-MAN was 100 mg/kg/day for 11 days after the group separation. Then, on 15th day after the group separation, the serum of each rat was collected, and measured for an IgE antibody amount in the same manner as that for Control group.
One remaining group of the four groups was used as Comparative Example group @. A physiological saline solution of 10 % Nikkol containing hydrocortisone which was an adrenocortical hormone preparation was administered intraperitoneally to each rat in such a dose that the amount of the hydrocortisone was 10 mg/kg/day for the consecutive 11 days after the group separation. Then, on 15th day after the group separation, the serum of each rat was collected, and measured for an IgE antibody amount in the same manner as that for Example groups 6 and ⑦.

[2] = system: delayed-type hypersensitivity; experiment: picryl chloride-induced delayed-type hypersensitivity, ear swelling ratio; assay type: in vivo, mice; details: for swelling ratio (ear): versus Control group
Protocol: 76 Male mice (C57BU6Ncrj) weighing 18 to 20 g were used. The abdominal portion of each mouse was shaved such that the shaved portion was about 1 cm^2. Thereafter, 20 µl of an ethanol solution of 7 % picryl chloride was applied to the shaved portions for sensitization.
Eighteen out of the 76 mice were used as Control group. A physiological saline solution containing 10 % Nikkol (Nikkol: trade name, dissolving aid, supplied by Nikko Chemical Co., Ltd.) was administered intraperitoneally to the 18 mice for the consecutive 5 days after the sensitization, and ear thickness of each of these 18 mice was measured on the eighth day after the sensitization. Thereafter, 20 µl of an olive oil solution of 1 % picryl chloride was applied to the ear of each of the mice to cause delayed-type hypersensitivity.
The above pharmaceutical solutions were administered intraperitoneally at the above-described doses for the five consecutive days after the sensitization, and ear thickness of each of these mice was measured on the eighth day after the sensitization. Thereafter, 20 µl of an olive oil solution of 1 % picryl chloride was applied to the ear of each of the mice to cause delayed-type hypersensitivity.
24 Hours after the delayed-type hypersensitivity was induced, the swelling of the ear of each of the mice of Control group and Example groups ①, ②and③ was measured with a dial thickness gauge. On the basis of the values of the ear thickness measured before the application of the olive oil solution of 1 % picryl chloride, the swelling ratio of each of Example groups ①, ② and ③ and Control group was determined.
And, the swelling ratio of the mice was determined.
At first, the abdominal portion of each of forty ICR male mice weighing 20 to 25 g was shaved such that the shaved portion was about 1 cm^2. Thereafter, 20 µl of an ethanol solution of 7 % picryl chloride was applied to the shaved portions for sensitization.

[3] = system: carrageenin-induced inflammation; experiment: carrageenin-induced inflammation, right hind paw swelling by volumetry; assay type: in vivo, rats; details: Example 7, Fig. 6; for inhibition activity against carrageenin-induced inflammation: VIE-MAN 10, 30, 100 mg/kg, depending upon its dose, comparators 10 mg/kg, intraperitoneally
Protocol: Six groups each consisting of five male SD rats weighing 180 to 220 g were used (total 30 rats), and each rat was measured for a size of the subplantar region1 of the right hind paw.
In order to induce carrageenin-induced inflammation, 0.1 ml/rat of a physiological saline solution of 1 % X-carrageenin was prepared.
One out of the six groups was used as Control group. A physiological saline solution of 10 % Nikkol was administered intraperitoneally to each rat of this group, and 0.5 hours after the administration of the physiological saline solution of 10 % Nikkol, 0.1 ml of the physiological saline solution of 1 % X-carrageenin was administered intracutaneously into the subplantar region of the right hind paw of each rat. Then, 0.5, 1, 2, 3 and 4 hours after the administration of […] of the physiological saline solution of 1 % X-carrageenin, the swelling on the subplantar region of the right hind paw of each rat was measured by volumetry, arid the average of swelling ratios of the group in every measurement was determined on the basis of the measurement values of the sizes of subplantar regions of the right hind paws of the rats obtained before the administration of the physiological saline solution of 10 % Nikkol solution.
The procedure for Control group was repeated except that a physiological saline solution of 10 % Nikkol containing VIE-MAN in place of the physiological saline solution of 10 % Nikkol was administered intraperitoneally in such a dose that the amount of VIE-MAN was 10 mg/kg.
The procedure for Control group was repeated except that a physiological saline solution of 10 % Nikkol containing VIE-MAN in place of the physiological saline solution of 10 % Nikkol was administered intraperitoneally in such a dose that the amount of VIE-MAN was 30 mg/kg.
The procedure for Control group was repeated except that a physiological saline solution of 10 % Nikkol containing VIE-MAN in place of the physiological saline solution of 10 % Nikkol was administered intraperitoneally in such a dose that the amount of VIE-MAN was 100 mg/kg.
The procedure for Example groups ⑭, ⑮ and ⑯ was repeated except that a physiological saline solution of 10 % Nikkol containing cortisone acetate which was a steroidal anti-inflammatory preparation (immunosuppressive preparation) in place of the physiological saline solution of 10 % Nikkol containing VIE-MAN was administered intraperitoneally in such a dose that the amount of the cortisone acetate was 10 mg/kg.
The procedure for Example groups ⑭, ⑮ and ⑯ was repeated except that a physiological saline solution of 10 % Nikkol containing indomethacin which was a nonsteroidal anti-inflammatory preparation (antipyretic analgesic antiphlogistic preparation) in place of the physiological saline solution of 10 % Nikkol containing VIE-MAN was administered intraperitoneally in such a dose that the amount of the indomethacin was 10 mg/kg.

[4] = Example 2, Fig. 2, ICR male mice, 100 mg/kg/day intraperitoneally
[5] = Example 2, ICR mice, 100 mg/kg/day intraperitoneally

Compound | inhibition activity against the IgE antibody production ([1]; same test as Example 3 with VIE-GLU in place of VIE-MAN) | swelling ratio (ear) [2, 4] | side effects such as a reduction in body weight [2, 5] | inhibition activity against carrageenin-induced inflammation [3] | inhibition activity against carrageenin-induced inflammation compared with VIE-MAN ([3]; comparators 10 mg/kg intraperitoneally) | average value of the IgE antibody amounts as a group unit ([1]; 30 mg/kg/day (11 days) or 100 mg/kg/day (6 days) intraperitoneally, versus Control group) | inhibition activity against the IgE antibody production ([1]; Example 3 / Comparative Example 2, VIE-MAN 30 or 100 mg/kg/day, hydrocortisone 10 mg/kg/day, intraperitoneally) | IgE antibody amount in serum, Average value ([1]; 30 mg/kg/day (total 11 days) intraperitoneally) | IgE antibody amount in serum, Average value ([1]; 100 mg/kg/day (total 6 days) intraperitoneally) | delayed-type hypersensitivity prevented and cured ([2]; Example 1, Fig. 1, 10, 30 and 100 mg/kg/day intraperitoneally) | swelling ratio (ear) ([2]; Example 1, Fig. 1, C57BU6Ncrj mice, 10, 30 and 100 mg/kg/day intraperitoneally for 5 days after sensitization, 24 hours after induction) | preventive and therapeutical effect on delayed-type hypersensitivity (comparison) ([2]; Example 1, Fig. 1, VIE-MAN 10, 30, 100 mg/kg/day versus methotrexate 1 mg/kg/day, intraperitoneally) | side effects such as a reduction in body weight ([2]; Example 1, mice, 10, 30 and 100 mg/kg/day intraperitoneally for 5 days) | average of swelling ratios ([3]; 10, 30 and 100 mg/kg intraperitoneally, 0.5 hour after administration of 1 % carrageenin solution, versus Control group)
Cc1c(C)c2c(c(C)c1OC1OC(CO)C(O)C(O)C1O)CCC(C)(CCCC(C)CCCC(C)CCCC(C)C)O2 (racemic) [VIE-GLU, dl-α-tocopheryl-,8-D-glucoside] | excellent inhibition activity | significantly lower than that of Control group | not observed |  |  |  |  |  |  |  |  |  |  | 
COc1ccc2c(c1)c(CC(=O)O)c(C)n2C(=O)c1ccc(Cl)cc1 [indomethacin, reference compound] |  |  |  | significant activity at and after 0.5 hour | lower than that of VIE-MAN |  |  |  |  |  |  |  |  | 
Cc1c(C)c2c(c(C)c1OC1OC(CO)C(O)C(O)C1O)CCC(C)(CCCC(C)CCCC(C)CCCC(C)C)O2 (racemic) [VIE-MAN, dl-a-tocopheryl-a-D-mannoside] |  | significantly lower than that of Control group | not observed | excellent inhibition activity |  | significantly lower than that of the IgE antibody amounts of Control group | excellent inhibition activity | 166.4 | 128.0 | dose-dependently prevented and cured | significantly lower than that of Control group | superior to methotrexate | not observed | significantly lower than that of swelling ratios of Control group
